In patent publication US20230330107A1, “METHODS TO PREVENT HIGH-GRADE SEROUS OVARIAN CANCER AND BREAST CANCER BY ADMINISTERING ANTIPROGESTINS” (priority 2020, published 2023):
“And” between values parts separate entries of the source, which are not always exact repeats. Equal entries are not always repeated. “Also recorded” adds a separate entry of the source.

Tests used:
[1] = test system: DKO mice (Dicer1-Pten double-knockout, HGSC model); assay: Mifepristone pellet in DKO mice with intact ovaries: HGSC development and survival; assay type: in vivo, mouse; conditions: for median survival: DKO mice, range in brackets
Excerpt: (§1) Generation of DKO and cPR-DKO mice. DKO mice (Dicer1^flox/flox Pten flox/flox Amhr2^cre/+) were generated. A mouse line carrying Pgr^flox/flox, a conditional progesterone receptor (PR) gene (cPR), was provided by Drs. John Lydon and Francesco DeMayo. Conditional PR (Pgr^flox/flox)) mice were crossed with DKO mice, generating cPR- DKO mice (Pgr^flox/floxDicer1^flox/flox Pten^flox/flox Amhr2^cre/+). These Dicer1-Pten double-knockout (DKO) mice developed metastatic HGSCs arising from the fallopian tube with 100% penetrance. […] All DKO mice die of widespread peritoneal metastases. Besides mirroring the clinical features of human HGSC, these mouse HGSCs closely resemble human HGSC with histopathological, molecular, and genomic similarities. Mouse use and experiments were approved by the Institutional Animal Care and Use Committee (IACUC) at Indiana University School of Medicine.
(§2) Hormone pellet implantation. To evaluate the effects of steroid hormones on HGSC development, upon ovariectomy at 5-6 weeks of age, DKO mice were implanted subcutaneously with a pellet of 17-β estradiol (E2) (0.72 mg/90 days/mouse), progesterone (P4) (25 mg/90 days/mouse), or combined E2 (0.72 mg) & P4 (25 mg). Also, for shorter periods of P4 exposure, ovariectomized DKO mice were treated with a P4 pellet of 2 mg (1 week) or 6 mg (3 weeks). Another set of ovariectomized DKO mice implanted with a placebo (a pellet without hormone) served as controls. […] For a control group, DKO mice received a placebo pellet for mifepristone. After anesthesia, a pellet was inserted subcutaneously (SQ) after a single skin incision (0.5-1.0 cm) on the back near ovary location. The skin incision was closed with either monofilament suture or wound clips. The pellets were purchased from Innovative Research of America (Sarasota, FL, USA).
(§3) Statistical analysis. Statistical analyses were performed using a GraphPad Prism software (Version 8, GraphPad Software, Inc.). P values less than 0.05 were considered statistically significant. Log-rank test was used to compare survival distributions between different experimental groups of mice; Student's t-test to compare hormone levels between placebo-treated ovariectomized DKO mice and progesterone (P4)-treated ovariectomized DKO mice at 1 week, 3 weeks, and 3 months; Student's t-test to compare hormone levels between ovariectomized DKO mice (Ovex) and each experimental group of DKO mice; and Fisher's exact test to analyze PR expression in benign and malignant ovarian tumors.
Progesterone generates its biological effects through the progesterone receptors (PR). Thus, to evaluate further whether progesterone signaling is critical to the development of HGSC with metastatic potential, DKO mice were treated with the PR antagonist mifepristone (RU486), an antiprogestin, that acts by binding to PR and inhibiting the transcription of its target genes. […] As expected, DKO mice treated with a placebo developed primary HGSC coupled with abundant peritoneal HGSC metastases (FIG. 1A-B). […] Histologically, the fallopian tubes from mifepristone-treated mice were composed of cystic and fibrous tissues as well as small segments of carcinoma cells in the stroma, accompanied by limited peritoneal metastasis (FIG. 1E-G).

[2] = test system: ovariectomized DKO mice; assay type: in vivo
Excerpt: as §1
Mouse bilateral ovariectomy. To examine the effect of ovary on HGSC development in the fallopian tube, both ovaries were surgically excised with the fallopian tubes remaining intact in DKO mice. The surgery was performed at 5-6 weeks of age, when there is no sign of tumors in the fallopian tube. These ovary-deficient DKO mice were then monitored for tumor development. Another set of DKO mice without surgery served as controls. Prior to surgery, DKO mice were anesthetized using Avertin (2,2,2,-tribromoethano) (125-250 mg/kg) (Sigma-Aldrich, St. Louis, Missouri, USA). For analgesia, Carprofen (5-10 mg/kg) (TCI America, Portland, OR, USA) was used a one dose pre-operatively and every 12 hours thereafter for 24-48 hours post-operatively.
as §2, §3
Progesterone induces HGSC with metastatic potential in ovary-deficient DKO mice. Ovary-deficient DKO mice were treated with steroid hormones. […] Tumor development and mouse survival were then monitored.

[3] = Measurement of serum hormone levels (ELISA) in ovariectomized DKO mice; assay type: in vivo, mouse; conditions: P4-treated ovariectomized DKO mice
Description: Measurement of hormone levels. Blood samples were collected in serum separation tubes (BD Microtainer® Tube; 365967; BD Biosciences, San Jose, CA, USA) from DKO mice or ovariectomized DKO mice with or without hormone treatment. Serum was isolated by centrifugating blood at 14,000 rpm for 5 minutes at room temperature. Measurements of serum progesterone (P4), 17-β estradiol (E2), testosterone (T), follicle-stimulating hormone (FSH), and luteinizing hormone (LH) levels were performed using ELISA (enzyme-linked immunoassay: P4, E2, and T) or RIA (radioimmunoassay: FSH and LH) at the Center for Research Ligand Assay and Analysis Core in Reproduction at the University of Virginia.

[4] = mifepristone 3 mg/m for 3 months
[5] = mifepristone 16.7 mg/m for 6 months

CC#C[C@]1(O)CC[C@H]2[C@@H]3CCC4=CC(=O)CCC4=C3[C@@H](c3ccc(N(C)C)cc3)C[C@@]21C [mifepristone, (8S,11R,13S,14S,17S)-11-[4-(dimethylamino)phenyl]-17-hydroxy-13-methyl-17-prop-1-ynyl-1,2,6,7,8,11,12,14,15,16-decahydrocyclopenta[a]phenanthren-3-one]
median survival ([1]; mifepristone 3 mg/m for 3 months, s.c. pellet from 5-6 weeks of age): 11.2 (5.9-21.3) months of age | median survival ([1]; mifepristone 16.7 mg/m for 6 months, s.c. pellets): 13.1 (6.6-24.3) months of age and 13.1 months of age | DKO mice not inhibited by mifepristone (HGSC development and peritoneal metastasis) ([1]; high dose, 16.7 mg/m for 6 m, 2/21 mice): 9.5% | DKO mice that still developed fallopian tube HGSC and widespread peritoneal metastases ([1]; low-dose group, 3 mg/m, 7/21 mice): 33.3% | hazard ratio (HR) of survival vs placebo-treated DKO mice [1, 4]: 0.40 | lived longer than DKO mice with placebo [1, 4]: ~4 months | effect on HGSC development and peritoneal metastasis (in words) ([1]; mifepristone 3 mg/m for 3 months vs placebo): developed little peritoneal metastasis; also recorded: effectively suppressed HGSC development in the fallopian tube and peritoneal metastasis | effect on HGSC development and peritoneal metastasis (in words) ([1]; mifepristone 16.7 mg/m for 6 m): effectively suppressed HGSC development and peritoneal metastasis | hazard ratio (HR) of survival vs placebo-treated DKO mice [1, 5]: 0.13 | lived longer than placebo-treated DKO mice [1, 5]: ~6 months

CC(=O)[C@H]1CC[C@H]2[C@@H]3CCC4=CC(=O)CC[C@]4(C)[C@H]3CC[C@]12C [P4, progesterone]
hazard ratio (HR) of survival vs placebo-treated ovariectomized DKO mice ([2]; P4 25 mg pellet for 3 months): 3.01 | ovariectomized DKO mice that developed predominantly HGSC in the fallopian tube with widespread peritoneal metastases and ascites ([2]; P4 25 mg pellet for 3 months, 32/32 mice): 100% | median survival ([2]; ovariectomized DKO mice, s.c. hormone pellet for 3 months (P4 25 mg; E2 0.72 mg), range in brackets): 6.5 months of age | serum progesterone levels (in words) [3]: elevated serum progesterone levels

C[C@]12CC[C@@H]3c4ccc(O)cc4CC[C@H]3[C@@H]1CC[C@@H]2O [E2, 17-β estradiol]
ovariectomized DKO mice with tumors or swelling in the uterus ([2]; female, DKO (Dicer1flox/flox Ptenflox/flox Amhr2cre/+), mouse, in vivo, 3 months): 90.9% | tumor phenotype in ovariectomized DKO mice (in words) ([2]; s.c. hormone pellet for 3 months): did not produce any tumors in the fallopian tube
